Measurements reported in US11524966B1 (Valo Early Discovery, Inc., priority 2017, dated 2022).

target: T1, USP25 (USP25-His6, Boston Biochem E-546) (Homo sapiens, UniProt Q9UHP3); experiment: Ubiquitin-Rhodamine 110 Assay for USP25 Activity, Example A-2; type: biochemical; details: Ubiquitin-Rhodamine 110 assay, Example A-2; read-out: USP25 A-2 IC50 range
T1 construct: His6; purchased Boston Biochem E-546
T1 sequence (Q9UHP3 1-1055): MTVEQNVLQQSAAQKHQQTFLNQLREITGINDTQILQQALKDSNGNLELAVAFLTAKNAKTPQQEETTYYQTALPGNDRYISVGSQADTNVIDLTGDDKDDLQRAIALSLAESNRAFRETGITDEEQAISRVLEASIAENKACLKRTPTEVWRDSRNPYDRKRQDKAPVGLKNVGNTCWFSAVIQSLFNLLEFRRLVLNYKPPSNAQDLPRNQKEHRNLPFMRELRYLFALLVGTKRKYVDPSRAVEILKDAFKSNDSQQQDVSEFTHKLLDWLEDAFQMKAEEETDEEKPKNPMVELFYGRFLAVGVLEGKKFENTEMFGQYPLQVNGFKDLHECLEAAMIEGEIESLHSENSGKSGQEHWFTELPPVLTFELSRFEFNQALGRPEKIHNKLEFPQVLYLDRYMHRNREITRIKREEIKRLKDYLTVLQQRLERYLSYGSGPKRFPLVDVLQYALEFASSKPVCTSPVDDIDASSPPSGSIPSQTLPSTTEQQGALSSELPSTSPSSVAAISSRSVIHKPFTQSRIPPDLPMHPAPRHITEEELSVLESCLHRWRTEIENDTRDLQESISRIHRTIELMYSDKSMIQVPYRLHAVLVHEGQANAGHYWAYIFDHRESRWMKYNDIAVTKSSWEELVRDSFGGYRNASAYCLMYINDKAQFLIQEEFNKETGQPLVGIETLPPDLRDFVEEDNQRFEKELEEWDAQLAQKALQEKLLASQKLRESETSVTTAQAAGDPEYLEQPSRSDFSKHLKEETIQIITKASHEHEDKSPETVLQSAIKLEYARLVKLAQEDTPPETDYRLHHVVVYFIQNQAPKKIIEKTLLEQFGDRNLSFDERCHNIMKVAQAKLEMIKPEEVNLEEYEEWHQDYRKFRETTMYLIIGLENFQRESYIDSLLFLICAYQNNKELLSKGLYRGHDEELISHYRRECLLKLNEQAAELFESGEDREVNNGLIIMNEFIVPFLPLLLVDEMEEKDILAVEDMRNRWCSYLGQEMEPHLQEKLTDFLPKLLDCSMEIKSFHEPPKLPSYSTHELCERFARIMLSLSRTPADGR
Procedure, shortened: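 USP25-His6 (75 pM) was preincubated with compound (10-point, 3-fold series, 25 μM to 1.3 nM) for 30 min in 20 mM Tris-HCl pH 8.0, 3 mM BME, 0.03% BGG, 0.01% Triton X-100. Ub-Rh110 (25 nM, <<Km) was then added for 45 min at room temperature, citric acid-stopped, and fluorescence read at 485/535 nm.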

`CCO[C@@H]1CN(c2ccc3c(n2)CC[C@H](NC(=O)c2sc4nc(C)ccc4c2N)C3)C[C@@H]1N` [Example 254, 3-amino-N-[(6S)-2-[(3S,4R)-3-amino-4-ethoxypyrrolidin-1-yl]-5,6,7,8-tetrahydroquinolin-6-yl]-6-methylthieno[2,3-b]pyridine-2-carboxamide] and `CCO[C@H]1CN(c2ccc3c(n2)CC[C@H](NC(=O)c2sc4nc(C)ccc4c2N)C3)C[C@H]1N` [Example 255, 3-amino-N-[(6S)-2-[(3R,4S)-3-amino-4-ethoxypyrrolidin-1-yl]-5,6,7,8-tetrahydroquinolin-6-yl]-6-methylthieno[2,3-b]pyridine-2-carboxamide] cannot be ordered by IC50: > 2 µM for the first, > 2 µM for the second.

Compared with `Cc1ccc2c(N)c(C(=O)N[C@H]3COc4cc(N5C[C@H](N)C(F)(F)C5)ccc4C3)sc2n1` [Example 256, 3-amino-N-[(3R)-7-[(4S)-4-amino-3,3-difluoropyrrolidin-1-yl]-3,4-dihydro-2H-1-benzopyran-3-yl]-6-methylthieno[2,3-b]pyridine-2-carboxamide], `Cc1ccc2c(N)c(C(=O)N[C@H]3COc4cc(N5C[C@@H](N)C(F)(F)C5)ccc4C3)sc2n1` [Example 257, 3-amino-N-[(3R)-7-[(4R)-4-amino-3,3-difluoropyrrolidin-1-yl]-3,4-dihydro-2H-1-benzopyran-3-yl]-6-methylthieno[2,3-b]pyridine-2-carboxamide] is lower in IC50: 0.2 to 2 µM for the first, 0.05 to 0.2 µM for the second. The second is the more potent here.

`Cc1ccc2c(N)c(C(=O)N[C@H]3COc4cc(N5C[C@H](N)C6(COC6)C5)ccc4C3)sc2n1` [Example 258, 3-amino-N-[(3R)-7-[(8R)-8-amino-2-oxa-6-azaspiro[3.4]octan-6-yl]-3,4-dihydro-2H-1-benzopyran-3-yl]-6-methylthieno[2,3-b]pyridine-2-carboxamide] and `Cc1ccc2c(N)c(C(=O)N[C@H]3COc4cc(N5C[C@@H](N)C6(COC6)C5)ccc4C3)sc2n1` [Example 259, 3-amino-N-[(3R)-7-[(8S)-8-amino-2-oxa-6-azaspiro[3.4]octan-6-yl]-3,4-dihydro-2H-1-benzopyran-3-yl]-6-methylthieno[2,3-b]pyridine-2-carboxamide] fall in the same range of IC50: 0.2 to 2 µM for the first, 0.2 to 2 µM for the second.

Compound `COC[C@@H]1C[C@@H](N)CN1c1ccc2c(c1)OC[C@H](NC(=O)c1sc3nc(C)ccc3c1N)C2` [Example 260, 3-amino-N-[(3R)-7-[(25,4R)-4-amino-2-(methoxymethyl)pyrrolidin-1-yl]-3,4-dihydro-2H-1-benzopyran-3-yl]-6-methylthieno[2,3-b]pyridine-2-carboxamide] has an IC50 of 0.001 to 0.05 µM.
